Experiment [1] has as its target T1, Glycogen phosphorylase, liver form (Homo sapiens, UniProt P06737).
T1 sequence (P06737 whole entry): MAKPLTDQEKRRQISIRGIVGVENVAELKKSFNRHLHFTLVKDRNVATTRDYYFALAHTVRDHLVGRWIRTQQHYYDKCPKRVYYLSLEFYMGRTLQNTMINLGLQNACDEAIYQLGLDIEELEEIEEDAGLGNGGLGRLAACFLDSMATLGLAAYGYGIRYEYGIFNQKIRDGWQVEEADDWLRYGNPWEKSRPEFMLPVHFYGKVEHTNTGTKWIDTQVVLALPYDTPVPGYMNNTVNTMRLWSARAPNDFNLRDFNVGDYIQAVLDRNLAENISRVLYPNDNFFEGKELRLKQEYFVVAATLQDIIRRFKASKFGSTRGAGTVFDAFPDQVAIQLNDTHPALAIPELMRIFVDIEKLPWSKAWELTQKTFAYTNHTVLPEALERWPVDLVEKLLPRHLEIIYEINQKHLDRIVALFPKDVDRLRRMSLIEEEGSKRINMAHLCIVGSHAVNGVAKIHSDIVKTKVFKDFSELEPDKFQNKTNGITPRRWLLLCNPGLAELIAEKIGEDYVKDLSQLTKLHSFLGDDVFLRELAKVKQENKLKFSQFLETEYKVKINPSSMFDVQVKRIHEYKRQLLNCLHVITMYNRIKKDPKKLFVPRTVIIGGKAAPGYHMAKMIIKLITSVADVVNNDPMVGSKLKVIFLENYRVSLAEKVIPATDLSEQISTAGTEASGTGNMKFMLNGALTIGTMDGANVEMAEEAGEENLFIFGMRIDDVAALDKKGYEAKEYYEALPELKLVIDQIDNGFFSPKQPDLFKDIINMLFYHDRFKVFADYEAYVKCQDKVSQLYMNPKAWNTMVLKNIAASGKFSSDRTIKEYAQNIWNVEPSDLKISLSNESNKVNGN
Put plainly: Inhibition of human liver glycogen phosphorylase.

For experiment [2], the target named is T2, Glycogen phosphorylase, muscle form (Oryctolagus cuniculus, UniProt P00489).
T2 sequence (P00489 whole entry): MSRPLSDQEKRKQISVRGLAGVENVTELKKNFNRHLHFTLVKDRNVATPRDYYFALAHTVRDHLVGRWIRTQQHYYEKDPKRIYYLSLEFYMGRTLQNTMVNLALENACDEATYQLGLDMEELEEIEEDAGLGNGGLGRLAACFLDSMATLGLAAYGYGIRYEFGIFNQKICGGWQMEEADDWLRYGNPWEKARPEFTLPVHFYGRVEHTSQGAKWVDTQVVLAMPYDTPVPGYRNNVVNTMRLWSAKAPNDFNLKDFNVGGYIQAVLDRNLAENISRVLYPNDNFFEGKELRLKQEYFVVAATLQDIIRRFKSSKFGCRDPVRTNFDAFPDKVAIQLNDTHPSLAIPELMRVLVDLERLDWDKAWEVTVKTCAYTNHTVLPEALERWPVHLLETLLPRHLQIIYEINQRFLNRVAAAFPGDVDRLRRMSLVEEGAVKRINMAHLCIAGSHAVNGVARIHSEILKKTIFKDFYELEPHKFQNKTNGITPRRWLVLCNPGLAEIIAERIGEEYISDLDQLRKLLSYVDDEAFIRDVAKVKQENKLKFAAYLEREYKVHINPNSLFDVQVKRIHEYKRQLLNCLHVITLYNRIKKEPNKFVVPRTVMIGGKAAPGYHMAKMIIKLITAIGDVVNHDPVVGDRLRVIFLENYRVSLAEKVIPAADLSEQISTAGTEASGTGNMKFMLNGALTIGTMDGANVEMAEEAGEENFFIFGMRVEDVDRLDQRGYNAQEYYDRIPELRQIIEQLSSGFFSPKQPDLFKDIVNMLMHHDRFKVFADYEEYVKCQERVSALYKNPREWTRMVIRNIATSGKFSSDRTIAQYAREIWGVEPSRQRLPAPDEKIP
The experiment can be described thus: Inhibition of rabbit muscle glycogen phosphorylase.

Experiment [3] in a line: Non-competitive inhibition of rabbit muscle glycogen phosphorylase b using constant concentration of AMP, glycogen and varying concentration of glucose-1-phosphate as substrate. It is filed as tissue-based, Oryctolagus cuniculus, Muscle tissue.
Experiment [4] is described as follows: Competitive inhibition of rabbit muscle glycogen phosphorylase b using constant concentration of glucose-1-phosphate, glycogen and varying concentration of AMP as substrate. It is filed as tissue-based, Oryctolagus cuniculus, Muscle tissue.

The IC50 is the concentration needed to halve the response being measured. High values mean lower potency, low ones higher potency. One may read the Ki as the equilibrium dissociation constant of an inhibitor or competing ligand from its target. A higher Ki goes with a looser hold on the target.

`O=C(O)C[C@H](OC(=O)/C=C/c1ccc(O)cc1)[C@@H](OC(=O)/C=C/c1ccc(O)cc1)C(=O)O`: in experiment [1], it took 2.5 µM to reach half-maximal inhibition (IC50). Moreover, the Ki in experiment [2] is 0.46 µM; in experiment [3] it was 5.47 µM; in experiment [4], 0.2 µM.
With `O=C(/C=C/c1ccc(O)cc1)O[C@@H](C(=O)O)[C@@H](OC(=O)/C=C/c1ccc(O)cc1)C(=O)O`, the results for the Ki in experiment [3] and in experiment [4] were 300 µM and 11.3 µM, respectively.
Take `O=C(/C=C/c1ccc(O)cc1)O[C@H](C(=O)O)[C@@H](OC(=O)/C=C/c1ccc(O)cc1)C(=O)O`: the Ki in experiment [3] amounted to 71.4 µM; in experiment [4], 5.68 µM.
The like results for `O=C(/C=C/c1ccc(O)cc1)O[C@H](C(=O)O)[C@H](OC(=O)/C=C/c1ccc(O)cc1)C(=O)O` were, in that order, 109 µM and 26.4 µM.

The values above are taken from ChEMBL document CHEMBL2331418, “Synthesis of tartaric acid analogues of FR258900 and their evaluation as glycogen phosphorylase inhibitors” (Bioorg Med Chem Lett, 2013).
